In patent US10800784B2, “Nitrogen-containing heterocyclic amide compound and pharmaceutical use thereof” (Japan Tobacco Inc., priority 2018, dated 2020):

How the values were obtained:
human PDHK2 (hPDHK2) = human PDHK2 (hPDHK2) (Homo sapiens (Human), UniProt Q15119); experiment: Inhibitory action of PDHK2 activity in vitro (residual PDH activity after PDHK reaction); format: biochemical; conditions: for IC50: PDH/hPDHK2 complex solution, PDHK reaction at room temperature for 45 min, NADH absorbance at 340 nm, read-out: kPDK2 IC50
Procedure, shortened: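 Indirect assay: FLAG-tagged hPDHK2 (0.5 μg/mL) precomplexed overnight at 4 °C with PDH (0.025 U/mL), then kinase reaction with compound and ATP 45 min at room temperature, pH 7.0 MOPS buffer. Residual PDH activity measured after 90 min with pyruvate, CoA, NAD, TPP as NADH absorbance at 340 nm, corrected for compound effect on PDH-only blank.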

human PDHK1 (hPDHK1) = human PDHK1 (hPDHK1) (Homo sapiens (Human), UniProt Q15118); experiment: Inhibitory action of PDHK1 activity in vitro (residual PDH activity after PDHK reaction); format: biochemical; conditions: for IC50: PDH/hPDHK1 complex solution, PDHK reaction at room temperature for 45 min, NADH absorbance at 340 nm, read-out: hPDK1 IC50; for inhibition at 0.003 µM: at 3 nmol/L, shown when IC50 value could not be calculated, read-out: hPDHK1 inhibitory rate at the lowest concentration of the test compound
human PDHK1 (hPDHK1), sequence (Q15118 29-436): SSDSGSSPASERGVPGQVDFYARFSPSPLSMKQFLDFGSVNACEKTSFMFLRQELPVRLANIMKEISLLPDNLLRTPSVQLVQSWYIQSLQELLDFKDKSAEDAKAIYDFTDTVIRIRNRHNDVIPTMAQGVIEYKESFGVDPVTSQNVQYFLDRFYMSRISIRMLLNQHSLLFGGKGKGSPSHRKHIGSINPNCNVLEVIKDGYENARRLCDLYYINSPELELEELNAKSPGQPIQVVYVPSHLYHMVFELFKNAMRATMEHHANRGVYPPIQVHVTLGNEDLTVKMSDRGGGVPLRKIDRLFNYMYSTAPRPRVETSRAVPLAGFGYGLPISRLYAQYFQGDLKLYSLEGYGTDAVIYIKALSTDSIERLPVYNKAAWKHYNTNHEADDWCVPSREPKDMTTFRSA
Procedure, shortened: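 N-FLAG hPDHK1 (E. coli-expressed, 0.5 μg/mL) precomplexed overnight at 4 °C with porcine heart PDH (0.025 U/mL), then reacted 45 min at room temperature with compound and ATP (0.353 μmol/L as added) in MOPS pH 7.0 buffer. Residual PDH activity after 90 min with pyruvate, CoA, NAD, TPP read as NADH at 340 nm.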

Compound	IC50 (human PDHK2 (hPDHK2)) [nM]	IC50 (human PDHK1 (hPDHK1)) [nM]	inhibition at 0.003 µM (human PDHK1 (hPDHK1)) [%]	hPDHK2 inhibitory rate at the lowest concentration of the test compound (human PDHK2 (hPDHK2); lowest concentration of the test compound in the assay (<3 nmol/L), shown when IC50 value could not be calculated) [%]
C[C@H]1CN(C(=O)c2ccc(C3(O)CCCC3)cc2)Cc2cnc([C@@](C)(O)C(F)(F)F)n21 [Example 52]	6	4	–	–
C[C@H]1CN(C(=O)c2cc(-c3ccc(C#N)cc3)n(C3CC3)n2)Cc2cnc([C@@](C)(O)C(F)(F)F)n21 [Example 53, 4-(1-cyclopropyl-3-((S)-5-methyl-3-((R)-1,1,1-trifluoro-2-hydroxypropan-2-yl)-5,6,7,8-tetrahydroimidazo[1,5-a]pyrazine-7-carbonyl)-1H-pyrazol-5-yl)benzonitrile]	8	4	–	–
C[C@H]1CN(C(=O)c2ccnc(-c3ccc(F)cc3C#N)c2)Cc2cnc([C@@](C)(O)C(F)(F)F)n21 [Example 54]	5	< 3	53	–
C[C@H]1CN(C(=O)c2cc(-c3ccc(F)cc3)ccn2)Cc2cnc([C@@](C)(O)C(F)(F)F)n21 [Example 55]	4	< 3	54	–
C[C@H]1CN(C(=O)c2cnc(-c3ccccc3)nc2)Cc2cnc([C@@](C)(O)C(F)(F)F)n21 [Example 56]	10	10	–	–
C[C@H]1CN(C(=O)c2ccc(=O)n(-c3ccc(F)cc3)c2)Cc2cnc([C@@](C)(O)C(F)(F)F)n21 [Example 57]	10	11	–	–
C[C@H]1CN(C(=O)c2ccc(F)c(-c3ccc(C#N)cn3)c2)Cc2cnc([C@@](C)(O)C(F)(F)F)n21 [Example 58]	4	3	–	–
Cc1cc(-c2ccc(F)cc2C#N)ncc1C(=O)N1Cc2cnc([C@@](C)(O)C(F)(F)F)n2[C@@H](C)C1 [Example 59]	3	4	–	–
C[C@H]1CN(C(=O)C2CCC(n3cccn3)CC2)Cc2cnc([C@@](C)(O)C(F)(F)F)n21 (stereo partly shown) [Example 60]	9	14	–	–
C[C@H]1CN(C(=O)c2cc(-c3ccc(F)cc3C#N)nn2C)Cc2cnc([C@@](C)(O)C(F)(F)F)n21 [Example 61]	5	3	–	–
C[C@H]1CN(C(=O)c2ccnc(-c3ccc(C#N)cc3F)c2)Cc2cnc([C@@](C)(O)C(F)(F)F)n21 [Example 62]	4	3	–	–
Cc1cc(C#N)ccc1-c1cc(C(=O)N2Cc3cnc([C@@](C)(O)C(F)(F)F)n3[C@@H](C)C2)ccn1 [Example 63]	7	5	–	–
C[C@H]1CN(C(=O)c2ccc(F)c(-c3ccnn3C)c2)Cc2cnc([C@@](C)(O)C(F)(F)F)n21 [Example 64]	7	5	–	–
Cc1c(C(=O)N2Cc3cnc([C@@](C)(O)C(F)(F)F)n3[C@@H](C)C2)ccnc1-c1ccc(C#N)cc1 [Example 65]	5	4	–	–
C[C@H]1CN(C(=O)c2cc(-c3ccc(Cl)cn3)nn2C)Cc2cnc([C@@](C)(O)C(F)(F)F)n21 [Example 66]	6	4	–	–
C[C@H]1CN(C(=O)c2ccnc(-c3ccc(C#N)cc3)c2)Cc2cnc([C@@](C)(O)C(F)(F)F)n21 [Example 67]	7	5	–	–
C[C@H]1CN(C(=O)c2cc(-c3ccc(C#N)cc3)ncc2F)Cc2cnc([C@@](C)(O)C(F)(F)F)n21 [Example 68, 4-(5-fluoro-4-((S)-5-methyl-3-((R)-1,1,1-trifluoro-2-hydroxypropan-2-yl)-5,6,7,8-tetrahydroimidazo[1,5-a]pyrazine-7-carbonyl)pyridin-2-yl)benzonitrile]	6	4	–	–
C[C@H]1CN(C(=O)c2ccc(F)c(-c3ncc(F)cc3C#N)c2)Cc2cnc([C@@](C)(O)C(F)(F)F)n21 [Example 69]	8	5	–	–
C[C@H]1CN(C(=O)c2ccc(F)c(-c3ccc(F)cn3)c2)Cc2cnc([C@@](C)(O)C(F)(F)F)n21 [Example 70]	6	3	–	–
C[C@H]1CN(C(=O)c2cncc(-c3ccc(C#N)cc3F)c2)Cc2cnc([C@@](C)(O)C(F)(F)F)n21 [Example 71]	7	4	–	–
C[C@H]1CN(C(=O)c2cncc(-c3ccc(F)cc3C#N)c2)Cc2cnc([C@@](C)(O)C(F)(F)F)n21 [Example 72]	9	7	–	–

Compound	IC50 (human PDHK2 (hPDHK2)) [nM]	IC50 (human PDHK1 (hPDHK1)) [nM]	inhibition at 0.003 µM (human PDHK1 (hPDHK1)) [%]	hPDHK2 inhibitory rate at the lowest concentration of the test compound (human PDHK2 (hPDHK2); lowest concentration of the test compound in the assay (<3 nmol/L), shown when IC50 value could not be calculated) [%]
C[C@H]1CN(C(=O)c2cc(-c3ccc(C#N)cn3)nn2C)Cc2cnc([C@@](C)(O)C(F)(F)F)n21 [Example 73, 6-(1-methyl-5-((S)-5-methyl-3-((R)-1,1,1-trifluoro-2-hydroxypropan-2-yl)-5,6,7,8-tetrahydroimidazo[1,5-a]pyrazine-7-carbonyl)-1H-pyrazol-3-yl)nicotinonitrile]	7	6	–	–
C[C@H]1CN(C(=O)c2ccc(C#N)c(-n3cccn3)c2)Cc2cnc([C@@](C)(O)C(F)(F)F)n21 [Example 74]	11	6	–	–
Cc1cc(C#N)ccc1-c1cc(C(=O)N2Cc3cnc([C@@](C)(O)C(F)(F)F)n3[C@@H](C)C2)n(C)n1 [Example 75]	11	6	–	–
Cc1c(-c2ccc(C#N)cc2)nn(C)c1C(=O)N1Cc2cnc([C@@](C)(O)C(F)(F)F)n2[C@@H](C)C1 [Example 76]	9	6	–	–
C[C@H]1CN(C(=O)c2ccc(C#N)c(-c3ccc(F)cn3)c2)Cc2cnc([C@@](C)(O)C(F)(F)F)n21 [Example 77]	9	6	–	–
C[C@H]1CN(C(=O)c2ccnc(-c3ccc(C#N)cc3)c2F)Cc2cnc([C@@](C)(O)C(F)(F)F)n21 [Example 78]	7	4	–	–
C[C@H]1CN(C(=O)c2cccc(-c3ccc(C#N)cn3)c2)Cc2cnc([C@@](C)(O)C(F)(F)F)n21 [Example 79]	8	5	–	–
C[C@H]1CN(C(=O)c2cncc(-c3ccc(F)cc3)c2)Cc2cnc([C@@](C)(O)C(F)(F)F)n21 [Example 80]	6	3	–	–
C[C@H]1CN(C(=O)c2cc(-c3ccc(F)cn3)nn2C)Cc2cnc([C@@](C)(O)C(F)(F)F)n21 [Example 81]	7	5	–	–
C[C@H]1CN(C(=O)c2ccc(F)c(-c3ccncc3F)c2)Cc2cnc([C@@](C)(O)C(F)(F)F)n21 [Example 82]	7	5	–	–
C[C@H]1CN(C(=O)c2ccc(F)c(-c3cncc(F)c3)c2)Cc2cnc([C@@](C)(O)C(F)(F)F)n21 [Example 83]	11	5	–	–
C[C@H]1CN(C(=O)c2ccc(F)c(-c3ccncc3C#N)c2)Cc2cnc([C@@](C)(O)C(F)(F)F)n21 [Example 84]	11	5	–	–
C[C@H]1CN(C(=O)c2ccc(C#N)c(-n3cc(Cl)cn3)c2)Cc2cnc([C@@](C)(O)C(F)(F)F)n21 [Example 85]	6	< 3	49	–
C[C@H]1CN(C(=O)c2cc(-c3ccc(F)cc3)ncc2F)Cc2cnc([C@@](C)(O)C(F)(F)F)n21 [Example 86]	4	< 3	52	–
C[C@H]1CN(C(=O)c2ccnc(-c3ccc(F)cc3)c2F)Cc2cnc([C@@](C)(O)C(F)(F)F)n21 [Example 87]	< 3	< 3	66	53
C[C@H]1CN(C(=O)c2ccnc(-c3ccc(F)cc3F)c2)Cc2cnc([C@@](C)(O)C(F)(F)F)n21 [Example 88]	4	3	–	–
C[C@H]1CN(C(=O)C2CCC(n3cc(Cl)cn3)CC2)Cc2cnc([C@@](C)(O)C(F)(F)F)n21 (stereo partly shown) [Example 89]	19	20	–	–
C[C@H]1CN(C(=O)C2(C)CN(c3ccc(F)cn3)C2)Cc2cnc([C@@](C)(O)C(F)(F)F)n21 [Example 90]	45	66	–	–
C[C@H]1CN(C(=O)C2(C)CN(C3CC(F)(F)C3)C2)Cc2cnc([C@@](C)(O)C(F)(F)F)n21 [Example 91]	28	49	–	–
C[C@H]1CN(C(=O)[C@H]2CCN(c3ccc(C#N)cn3)C2)Cc2cnc([C@@](C)(O)C(F)(F)F)n21 [Example 92]	23	27	–	–
